Results published in PMC10055046 (bioRxiv, 2023).

Key:
[1] = molecular target: T1, OCT2CS (Homo sapiens, UniProt O15244); experiment: [3H]-verapamil accumulation in OCT2CS-injected oocytes; assay type: cell-based; conditions: 100 nM [3H]-verapamil, 30 min
T1 sequence (O15244 1-555): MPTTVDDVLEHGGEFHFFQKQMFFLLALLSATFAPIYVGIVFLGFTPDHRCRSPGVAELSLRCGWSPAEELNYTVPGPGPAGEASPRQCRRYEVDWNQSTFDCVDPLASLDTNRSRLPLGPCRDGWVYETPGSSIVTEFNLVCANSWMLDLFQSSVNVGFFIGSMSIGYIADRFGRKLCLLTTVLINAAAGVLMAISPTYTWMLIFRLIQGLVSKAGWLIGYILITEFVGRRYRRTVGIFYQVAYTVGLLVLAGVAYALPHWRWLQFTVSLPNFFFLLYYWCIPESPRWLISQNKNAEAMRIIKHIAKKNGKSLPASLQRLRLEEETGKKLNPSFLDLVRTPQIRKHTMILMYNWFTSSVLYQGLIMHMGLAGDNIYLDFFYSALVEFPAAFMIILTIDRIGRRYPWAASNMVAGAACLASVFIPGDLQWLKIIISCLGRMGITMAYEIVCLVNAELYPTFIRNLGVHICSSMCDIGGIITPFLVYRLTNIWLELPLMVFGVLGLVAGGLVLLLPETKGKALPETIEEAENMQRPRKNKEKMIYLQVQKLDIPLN

[2] = molecular target: T2, WT hOCT1 (Homo sapiens, UniProt O15245); conditions: cited from earlier work
T2 sequence (O15245 1-554): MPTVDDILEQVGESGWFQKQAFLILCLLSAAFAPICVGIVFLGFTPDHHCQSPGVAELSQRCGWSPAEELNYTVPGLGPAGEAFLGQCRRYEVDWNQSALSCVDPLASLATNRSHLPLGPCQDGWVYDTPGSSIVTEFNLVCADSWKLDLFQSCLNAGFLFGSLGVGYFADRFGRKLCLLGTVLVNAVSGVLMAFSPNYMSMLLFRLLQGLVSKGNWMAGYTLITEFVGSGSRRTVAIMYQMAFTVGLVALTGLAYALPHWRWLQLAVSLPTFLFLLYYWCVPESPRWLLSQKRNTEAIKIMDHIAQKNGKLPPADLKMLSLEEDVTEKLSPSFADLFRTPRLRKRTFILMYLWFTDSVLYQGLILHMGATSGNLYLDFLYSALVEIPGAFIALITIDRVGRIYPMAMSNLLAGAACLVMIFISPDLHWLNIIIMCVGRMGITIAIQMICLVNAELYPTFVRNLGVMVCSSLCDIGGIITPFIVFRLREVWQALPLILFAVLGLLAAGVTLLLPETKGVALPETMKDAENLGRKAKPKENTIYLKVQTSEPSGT

SMILES | Uptake of [3H]-verapamil by OCT2CS ([1]; n=3, listed as VPM) | Uptake of [3H]-verapamil by OCT2CS ([1]; n=3, listed as verapamil) | Kt for metformin, WT hOCT1, previous reports [2]
COc1ccc(CCN(C)CCCC(C#N)(c2ccc(OC)c(OC)c2)C(C)C)cc1OC (racemic) [(±)-VPM, verapamil] | does not mediate uptake | does not accumulate | –
CN(C)C(=N)N=C(N)N [metformin] | – | – | 1 to 5 mM
